Assay results taken from ChEMBL document CHEMBL6071165, “Design, synthesis and biological evaluation of plant-derived miliusol derivatives achieve TNBC profound regression in vivo” (Eur J Med Chem, 2024).
Active and inactive are the calls of the source. The rule behind the calls is not given here.

Tests used:
BT-549 [1] = experiment: Inhibition of cell migration in human BT-549 cells assessed as reduction in MMP-2 protein level at 1 uM incubated for 24 hrs by DAPI staining based immunofluorescence analysis; assay type: functional
MDA-MB-231 [2] = experiment: Induction of ER stress in human MDA-MB-231 cells assessed as appearance of large number of vacuoles at 1 uM incubated for 24 hrs by TEM analysis; assay type: functional, cell-based
[3] = Toxicity in female BALB/c mouse xenografted with human MDA-MB-231 cells assessed as effect on pathological changes in heart at 5 to 20 mg/kg, sc by H and E staining based analysis; assay type: organism-based; details: in vivo, dose 5-20 mg/kg
[4] = Toxicity in female BALB/c mouse xenografted with human BT-549 cells assessed as effect on pathological changes in liver at 5 to 20 mg/kg, sc by H and E staining based analysis; assay type: organism-based; details: in vivo, dose 5-20 mg/kg
BT-549 [5] = experiment: Antiproliferative activity against human BT-549 cells xenografted in female BALB/c mouse model assessed as fold change in downregulation of MMP-2 protein level at 10 mg/kg administered subcutaneously incubated for 24 hrs by Western blot analysis (reference value: 1.00%); assay type: functional; details: route sc
MDA-MB-231 [6] = experiment: Induction of apoptosis in human MDA-MB-231 cells assessed as upregulation of cleavage of caspase-9 expression at 0.5 to 2 uM incubated for 24 hrs by Western blot analysis; assay type: functional, cell-based; details: dose 0.5-2 µM
BT-549 [7] = experiment: Induction of apoptosis in human BT-549 cells assessed as viable cells at 0.5 uM incubated for 24 hrs by Annexin V-PI staining based flow cytometric analysis (reference value: 93.0%); assay type: functional; details: read-out: Activity
MDA-MB-231 [8] = experiment: Antiproliferative activity against human MDA-MB-231 cells xenografted in female BALB/c mouse model assessed as inhibition of Ki-67 expression at 5 to 20 mg/kg administered subcutaneously by immunohistochemical staining based microscopic analysis; assay type: functional, organism-based; details: dose 5-20 mg/kg, route sc
BT-549 [9] = experiment: Induction of apoptosis in human BT-549 cells assessed as early apoptotic cells at 2 uM incubated for 24 hrs by Annexin V-PI staining based flow cytometric analysis (reference value: 0.78%); assay type: functional
MDA-MB-231 [10] = experiment: Antiproliferative activity against human MDA-MB-231 cells xenografted in female BALB/c mouse model assessed as fold change in cleavage of caspase-3 level at 20 mg/kg administered subcutaneously incubated for 24 hrs by Western blot analysis (reference value: 1.00%); assay type: functional; details: route sc
MDA-MB-231 [11] = experiment: Inhibition of glycolysis in human MDA-MB-231 cells assessed as reduction in lactate production at 0.5 to 2 uM; assay type: functional, cell-based; details: dose 0.5-2 µM
BT-549 [12] = experiment: Induction of apoptosis in human BT-549 cells assessed as necrotic cells at 2 uM incubated for 24 hrs by Annexin V-PI staining based flow cytometric analysis (reference value: 3.32%); assay type: functional
BT-549 [13] = experiment: Induction of apoptosis in human BT-549 cells assessed as necrotic cells at 1 uM incubated for 24 hrs by Annexin V-PI staining based flow cytometric analysis (reference value: 3.32%); assay type: functional
MDA-MB-231 [14] = experiment: Induction of ER stress in human MDA-MB-231 cells assessed as activation of BIP protein level incubated for 24 hrs by Western blot analysis; assay type: functional, cell-based; details: dose 0.5-2 µM
Mitochondrial membrane = experiment: Disruption of mitochondrial potential loss in human MDA-MB-231 cells assessed as increase in JC-1 monomers at 1 uM incubated for 24 hrs by JC-1 staining based flow cytometric analysis (Rvb =1.68%); assay type: cell membranes
BT-549 [15] = experiment: Induction of apoptosis in human BT-549 cells assessed as upregulation of cleavage of PARP level at 0.5 to 2 uM incubated for 24 hrs by Western blot analysis; assay type: functional, cell-based; details: dose 0.5-2 µM
BT-549 [16] = experiment: Inhibition of colony formation in human BT-549 cells incubated for 7 days by Crystal violet staining based analysis; assay type: functional, cell-based; details: dose 0.5-2 µM, time 7.0 day
BT-549 [17] = experiment: Induction of apoptosis in human BT-549 cells incubated for 24 hrs by Annexin V-PI staining based flow cytometric analysis; assay type: functional, cell-based; details: dose 0.5-2 µM
MDA-MB-231 [18] = experiment: Inhibition of cell migration in human MDA-MB-231 cells assessed as decrease in SNAIL level at 1 uM incubated for 24 hrs by DAPI staining based immunofluorescence analysis; assay type: functional
BT-549 [19] = experiment: Antiproliferative activity against human BT-549 cells xenografted in female BALB/c mouse model assessed as fold change in upregulation of BAX protein level at 10 mg/kg administered subcutaneously incubated for 24 hrs by Western blot analysis (reference value: 1.00%); assay type: functional; details: route sc
MDA-MB-231 [20] = experiment: Induction of ER stress in human MDA-MB-231 cells assessed as upregulation of BIP protein level at 1 uM incubated for 24 hrs by DAPI staining based immunofluorescence analysis; assay type: functional, cell-based
BT-549 [21] = experiment: Antiproliferative activity against human BT-549 cells xenografted in female BALB/c mouse model assessed as fold change in upregulation of BIP protein level at 20 mg/kg administered subcutaneously incubated for 24 hrs by Western blot analysis (reference value: 1.00%); assay type: functional; details: route sc
MDA-MB-231 [22] = experiment: Induction of apoptosis in human MDA-MB-231 cells assessed as early apoptotic cells at 2 uM incubated for 24 hrs by Annexin V-PI staining based flow cytometric analysis (reference value: 0.42%); assay type: functional
BT-549 [23] = experiment: Antiproliferative activity against human BT-549 cells xenografted in female BALB/c mouse model assessed as fold change in cleavage of caspase-3 level at 20 mg/kg administered subcutaneously incubated for 24 hrs by Western blot analysis (reference value: 1.00%); assay type: functional; details: route sc
MDA-MB-231 [24] = experiment: Induction of apoptosis in human MDA-MB-231 cells assessed as necrotic cells at 1 uM incubated for 24 hrs by Annexin V-PI staining based flow cytometric analysis (reference value: 1.29%); assay type: functional
BT-549 [25] = experiment: Antiproliferative activity against human BT-549 cells xenografted in female BALB/c mouse model assessed as fold change in inhibition of PKM2 expression at 5 mg/kg administered subcutaneously incubated for 24 hrs by Western blot analysis (reference value: 1.05%); assay type: functional; details: route sc
[26] = Selectivity ratio of IC50 for antiproliferative activity against human MCF-10A cells assessed as inhibition of cell proliferation incubated for 24 hrs by MTT assay to IC50 for antiproliferative activity against human BT-549 cells assessed as inhibition of cell proliferation incubated for 24 hrs by MTT assay; assay type: toxicity, cell-based; details: MCF-10A cells versus BT-549 cells, read-out: Ratio IC50
MDA-MB-231 [27] = experiment: Antiproliferative activity against human MDA-MB-231 cells xenografted in female BALB/c mouse model assessed as increase in E-cadherin level at 5 to 20 mg/kg administered subcutaneously by immunohistochemical staining based microscopic analysis; assay type: functional, organism-based; details: dose 5-20 mg/kg, route sc
MDA-MB-231 [28] = experiment: Induction of apoptosis in human MDA-MB-231 cells assessed as late apoptotic cells at 0.5 uM incubated for 24 hrs by Annexin V-PI staining based flow cytometric analysis (reference value: 1.83%); assay type: functional
BT-549 [29] = experiment: Induction of apoptosis in human BT-549 cells assessed as upregulation of cleavage of caspase-3 expression at 0.5 to 2 uM incubated for 24 hrs by Western blot analysis; assay type: functional, cell-based; details: dose 0.5-2 µM
BT-549 [30] = experiment: Induction of apoptosis in human BT-549 cells assessed as late apoptotic cells at 0.5 uM incubated for 24 hrs by Annexin V-PI staining based flow cytometric analysis (reference value: 2.95%); assay type: functional

## CC(C)=CCC/C(C)=C/[C@H]1OC(=O)CC12C[C@H](OC(=O)Cc1ccc(NC(=O)/C=C/c3ccccc3)cc1)C=CC2=O (stereo partly specified)
BT-549 [1]
  inhibition: Active
MDA-MB-231 [2]
  Activity: Active
[3]
  Activity: Non-Toxic
[4]
  Activity: Non-Toxic
BT-549 [5]
  fold change (FC): 0.75
MDA-MB-231 [6]
  Activity: Active
BT-549 [7]
  viability at 0.5 µM: 91.7%
MDA-MB-231 [8]
  Activity: Active
BT-549 [9]
  Activity: 11.1%
MDA-MB-231 [10]
  fold change (FC): 2.09
MDA-MB-231 [11]
  inhibition: Active
BT-549 [12]
  Activity: 4.02%
BT-549 [13]
  Activity: 5.44%
MDA-MB-231 [14]
  Activity: Dose-Dependent Effect
Mitochondrial membrane
  Activity: 42.6%
BT-549 [15]
  Activity: Active
BT-549 [16]
  inhibition: Dose-Dependent Effect
BT-549 [17]
  Activity: Dose-Dependent Effect
MDA-MB-231 [18]
  inhibition: Active
BT-549 [19]
  fold change (FC): 1.61
MDA-MB-231 [20]
  Activity: Active
BT-549 [21]
  fold change (FC): 2.37
MDA-MB-231 [22]
  Activity: 2.23%
BT-549 [23]
  fold change (FC): 1.74
MDA-MB-231 [24]
  Activity: 15.9%
BT-549 [25]
  fold change (FC): 0.97
[26]
  selectivity ratio at 24 h: 57.7
MDA-MB-231 [27]
  Activity: Active
MDA-MB-231 [28]
  Activity: 16.4%
BT-549 [29]
  Activity: Active
BT-549 [30]
  Activity: 3.62%
